Reference: article PMC10726441, “Discovery of Tumor-Targeted 6-Methyl Substituted Pemetrexed and Related Antifolates with Selective Loss of RFC Transport” (ACS Medicinal Chemistry Letters, 2023)
pIC50: −log10 of the molar value.

What was measured:
D4 (FRβ) CHO cells = assay: Cell proliferation assay, D4 CHO cells expressing FRβ; type: cell-based, Chinese hamster; details: for pIC50: Cricetulus griseus, CHO, 96 h, 0-1000 nM, mean (standard error), 3-5 experiments; for RFC/FRβ Selectivity ratios: ratio of IC50 PC43-10 (RFC) to IC50 D4 (FRβ)
Excerpt: To assess the impact of 6-methyl substitutions on the bicyclic scaffolds of the pyrrolo[2,3-d]pyrimidine antifolates 1–4 on RFC transport vis-à-vis PCFT, FRα, and FRβ, we used a unique biological readout for transport activity. This involved proliferation assays with isogenic Chinese hamster ovary (CHO) sublines derived from RFC-, FR-, and PCFT-null MTXRIIOua^R2–4 CHO cells[39],[40] engineered to express the human FRα (RT16),[25] FRβ (D4),[25] RFC (PC43–10),[41] or PCFT (R2/PCFT4).[26],[42] As these CHO cell lines are genetically identical except for their folate transporters, differences in inhibition of cell proliferation by specific cytotoxic antifolates directly reflect transporter specificities.[19],[23]−[31],[42] […]
Reagents for biological studies. Leucovorin [(6R,S) 5-formyl tetrahydrofolate] and methotrexate (MTX) was provided by the Drug Development Branch, National Cancer Institute, Bethesda, MD. Other chemicals were obtained from commercial sources in the highest available purities. Pemetrexed (PMX; 1) [N-{4-[2- (2-amino-3,4-dihydro-4-oxo-7H-pyrrolo[2,3-d]pyrimidin-5-yl)ethyl]benzoyl-L-glutamic acid] (Alimta) was purchased from LC Laboratories (Woburn, MA). The syntheses of compounds 2 and 3 were previously described.7, 8 Additional chemicals were purchased from commercial sources in the highest available purities.
Cell Culture. The reduced folate carrier (RFC), proton-coupled folate transporter (SLC46A1; PCFT) and folate receptor (FR) α- and β-null Chinese hamster ovary (CHO) cell line MTXRIIOuaR2-49 was a gift from Dr. Wayne Flintoff (University of Western Ontario, London, ON). Four sublines were derived from the R2 subline by transfection with either RFC, PCFT, FRα, or FRβ, giving rise to PC43-10 (expresses human RFC), 10 R2/PCFT4 (expresses human PCFT),11 RT16 (expresses human FRα), 12 and D4 (expresses FRβ) cells. 12 Isogenic CHO sublines were routinely cultured in α-minimal essential medium (α-MEM) supplemented with 100 units/mL penicillin/100 μg/mL streptomycin, 2 mM L-glutamine and 10% bovine calf serum (Sigma-Aldrich). Transfected sublines of R2 cells were cultured in the presence of 1.5 mg/ml G418. […]
mM L-glutamine. Cell lines were tested for Mycoplasma by PCR using a Mycloplasma testing kit (Venor™ GeM Mycoplasma Detection Kit, Sigma). Frozen stocks were generated from authenticated Mycoplasma-free cultures.
(§1) For cell proliferation assays, CHO, KB, NCI-IGROV1 and IOSE 7576 cells were plated in 96-well dishes at densities ranging from 2500-5000 cells/well in 200 μL media and treated with a range of inhibitors spanning 0-1000 nM. Experiments with RT16, D4, IGROV1, IOSE 7576 and KB cells used folate-free RPMI 1640 (FF RPMI) media with 10% dialyzed fetal bovine serum and 100 units/mL penicillin/100 μg/mL streptomycin, supplemented with 2 nM leucovorin and 2 mM L-glutamine. FR-mediated drug uptake was assessed in parallel incubations including 200 nM folic acid. For R2/PCFT4, PC43-10 and R2 CHO cells, the medium was FF-RPMI supplemented with 10% dialyzed fetal bovine serum, 100 units/mL penicillin/100 μg/mL streptomycin, 25 nM leucovorin and 2 mM L-glutamine.
(§2) Cells were treated over a 96 h period at 37° C with 5% CO2 and relative cell numbers quantified using the CellTiter-blue cell viability assay (Promega, Madison, WI) and a fluorescence plate reader. Raw data were exported to Excel for analysis and the results were plotted using Graphpad Prism 6.0. Determinations of IC50s were made […]
assays have been previously described.7, 8, 11, 12, 15-20
Using KB cells, additional proliferation assays were performed with metabolite protection in folate- and glycine-free RPMI1640 with 10% dialyzed fetal bovine serum, 2 mM L-glutamine and antibiotics with 2 nM leucovorin to identify the targeted pathway and enzyme(s). 7, 8, 11, 12, 15-20 Inhibitory effects of the novel analogs on de novo thymidylate biosynthesis and de novo purine nucleotide biosynthesis were tested by incubating drugs with thymidine (10 μM) and adenosine (60 μM), respectively. […]

[1] = system: IGROV1 epithelial ovarian cancer cells; assay: Cell proliferation assay, IGROV1 tumor cells; type: cell-based, human; details: for pIC50: Homo sapiens, IGROV-1, 96 h, 0-1000 nM, mean (standard error), 3-5 experiments; for potency toward IGROV1 cells compared with IOSE 7576 cells (in words): IGROV1 vs IOSE 7576
Excerpt: For the tumor cells, except the des-methyl compound 4 with IGROV1 cells, all compounds were inhibitory. […]
Reagents for biological studies. Leucovorin [(6R,S) 5-formyl tetrahydrofolate] and methotrexate (MTX) was provided by the Drug Development Branch, National Cancer Institute, Bethesda, MD. Other chemicals were obtained from commercial sources in the highest available purities. Pemetrexed (PMX; 1) [N-{4-[2- (2-amino-3,4-dihydro-4-oxo-7H-pyrrolo[2,3-d]pyrimidin-5-yl)ethyl]benzoyl-L-glutamic acid] (Alimta) was purchased from LC Laboratories (Woburn, MA). The syntheses of compounds 2 and 3 were previously described.7, 8 Additional chemicals were purchased from commercial sources in the highest available purities. […]
KB nasopharyngeal carcinoma cells were obtained from the American Type Culture Collection (Manassas, VA) and IGROV1 (NCI-IGROV1) (passage 5) ovarian adenocarcinoma cells13 were obtained from the Division of Cancer Treatment and Diagnosis, National Cancer Institute (Frederick, MD). Normal ovary cells immortalized with SV40 (IOSE 7576)14 were obtained from the Canadian OvCaRe Cell Bank […]
(Vancouver, B.C). IGROV1, KB and IOSE 7576 cells were cultured in complete FF-RPMI with 10% fetal bovine serum and 100 units/mL penicillin/100 μg/mL streptomycin, and 2 mM L-glutamine. Cell lines were tested for Mycoplasma by PCR using a Mycloplasma testing kit (Venor™ GeM Mycoplasma Detection Kit, Sigma). Frozen stocks were generated from authenticated Mycoplasma-free cultures.
as §1, §2
assays have been previously described.7, 8, 11, 12, 15-20 […]
7, 8, 11, 12, 15-20 Inhibitory effects of the novel analogs on de novo thymidylate biosynthesis and de novo purine nucleotide biosynthesis were tested by incubating drugs with thymidine (10 μM) and adenosine (60 μM), respectively. Incubation with glycine (130 µM) was used to assess the potential involvement of mitochondrial C1 targeted agents.15 To identify multiple metabolic targets, metabolite additions were added in combination.7, 8, 11, 12, 15-19 Finally, to distinguish targeting between the folate-dependent purine biosynthetic enzymes glycinamide ribonucleotide formyltransferase (GARFTase) and 5-aminoimidazole-4-carboxamide (AICA) ribonucleotide formyltransferase (AICARFTase), co-incubation experiments were performed using AICA hydrochloride (320 μM). 7, 8, 11, 12, […]
Statistics. The biological data reflect at least three experimental replicates. All statistical comparisons were performed using unpaired t-tests. Biological data are presented as mean values +/- standard errors using data without transformation.

SMILES	pIC50 (D4 (FRβ) CHO cells)	RFC/FRβ Selectivity ratios (D4 (FRβ) CHO cells)	pIC50 [1]	potency toward IGROV1 cells compared with IOSE 7576 cells (in words) [1]	inhibition of IGROV1 cells (in words) [1]	greater potency than the corresponding 6-desmethyl analogue 3, IGROV1 cells ([1]; IGROV1 cells, relative to compound 3) [fold]
Nc1nc2[nH]cc(CCc3ccc(C(=O)N[C@@H](CCC(=O)O)C(=O)O)s3)c2c(=O)[nH]1 [Compound 3]	6.26	0.11	6.49	more potent toward IOSE 7576 cells than IGROV1 cells	–	–
Nc1nc2[nH]cc(CCc3ccc(C(=O)N[C@@H](CCC(=O)O)C(=O)O)c(F)c3)c2c(=O)[nH]1 [Compound 4]	8.05	19	< 6.00	–	inactive	–
Cc1[nH]c2nc(N)[nH]c(=O)c2c1CCCc1ccc(C(=O)N[C@@H](CCC(=O)O)C(=O)O)cc1 [Compound 6]	8.58	>383	6.12	–	modestly inhibitory	–
Cc1[nH]c2nc(N)[nH]c(=O)c2c1CCc1ccc(C(=O)N[C@@H](CCC(=O)O)C(=O)O)s1 [Compound 7]	8.53	>335	8.60	–	–	127
Cc1[nH]c2nc(N)[nH]c(=O)c2c1CCc1ccc(C(=O)N[C@@H](CCC(=O)O)C(=O)O)cc1 [Compound 5]	8.24	>175	8.03	–	–	–
Nc1nc2[nH]cc(CCc3ccc(C(=O)N[C@@H](CCC(=O)O)C(=O)O)cc3)c2c(=O)[nH]1 [Compound 1, reference compound]	7.20	–	7.15	more active toward IGROV1 cells	–	–
Cc1[nH]c2nc(N)[nH]c(=O)c2c1CCc1ccc(C(=O)N[C@@H](CCC(=O)O)C(=O)O)c(F)c1 [Compound 8]	7.31	>20	6.87	–	–	–
Nc1nc2[nH]cc(CCCc3ccc(C(=O)N[C@@H](CCC(=O)O)C(=O)O)cc3)c2c(=O)[nH]1 [Compound 2]	8.45	–	7.28	more potent toward IOSE 7576 cells than IGROV1 cells	–	–
